This note sets out measurements from ChEMBL document CHEMBL1131806, “Structure-activity relationships of pyrroloquinazolines as thrombin receptor antagonists” (Bioorg Med Chem Lett, 1999).

SMILES strings stand for the structures. Active and inactive are the calls of the source. The rule behind the calls is not given here.

The term IC50 denotes the point on the concentration scale where inhibition reaches its midpoint. As a reminder, the inhibition is how much of the control response was suppressed. By Inhibition is commonly meant how much of the control response was suppressed.

The species named for test [1] is Homo sapiens. The test is described as follows: Compound was evaluated for the inhibition of aggregation induced by 300 nM ha-TRAP(high affinity thrombin receptor agonist peptide). Type of test: functional, organism-based.
Test [2] addresses T1, Proteinase-activated receptor 1 (Homo sapiens, UniProt P25116).
T1 sequence (P25116 whole entry): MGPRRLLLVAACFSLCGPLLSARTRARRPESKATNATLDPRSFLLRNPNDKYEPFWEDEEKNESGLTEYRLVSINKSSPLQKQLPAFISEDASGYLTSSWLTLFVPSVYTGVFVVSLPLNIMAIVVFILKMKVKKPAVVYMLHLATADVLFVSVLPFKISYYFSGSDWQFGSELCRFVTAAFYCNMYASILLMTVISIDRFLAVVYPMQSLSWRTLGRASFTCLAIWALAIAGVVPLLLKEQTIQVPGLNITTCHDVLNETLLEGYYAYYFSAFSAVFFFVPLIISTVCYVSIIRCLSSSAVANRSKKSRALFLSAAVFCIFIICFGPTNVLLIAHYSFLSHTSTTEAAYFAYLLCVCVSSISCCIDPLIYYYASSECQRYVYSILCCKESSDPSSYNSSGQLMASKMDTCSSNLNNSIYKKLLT
Put plainly: Inhibitory activity against binding to Thrombin receptor 1 (PAR-1).

Test [3] is filed under the species Homo sapiens. The test is described as follows: Compound was evaluated for the inhibition of aggregation induced by 0.1 U/mL thrombin at 10 uM concentration and determined at 2 min; NA = Not active. It is filed as functional, organism-based.
Test [4] is filed under the species Homo sapiens. The test is described as follows: Compound was evaluated for the inhibition of aggregation induced by 300 nM ha-TRAP(high affinity thrombin receptor agonist peptide) at 10 uM concentration; NA = Not active. It is filed as functional, organism-based.
Test [5] deals with T2, Proteinase-activated receptor 1 (Homo sapiens) (UniProt P25116).
T2 sequence (whole entry): T1 sequence (P25116 whole entry)
The test is described as follows: Compound was evaluated for inhibitory activity against binding to Thrombin receptor 1 (PAR-1) at 1 uM concentration.

The species named for test [6] is Homo sapiens. Put plainly: Compound was evaluated for the inhibition of aggregation induced by 300 nM ha-TRAP(high affinity thrombin receptor agonist peptide) at 10 uM concentration. It is filed as functional.
Test [7] is filed under the species Homo sapiens. The test is described as follows: Compound was evaluated for the inhibition of aggregation induced by 0.1 U/mL thrombin and determined at 2 min. Type of test: functional, organism-based.
For test [8], the species on record is Homo sapiens. Put plainly: Compound was evaluated for the inhibition of platelet aggregation induced by 0.1 U/mL thrombin at concentration. of 10 uM; NA = Not active. It is filed as functional, organism-based.

As for `CCNc1nc(N)c2c(ccc3c2ccn3Cc2ccc(C(C)C)cc2)n1`, the IC50 in the test filed under Homo sapiens [1] was 600 nM; in test [2], 524 nM. In addition, the inhibition result in the test listed under Homo sapiens [3] was “inactive”.
As to `CC(C)c1ccc(Cn2ccc3c4c(N)nc(N5CCCCC5)nc4ccc32)cc1`, the IC50 in the test filed under Homo sapiens [1] came out at 600 nM; in test [2], 100 nM. For the same compound, the inhibition entry in the test filed under Homo sapiens [3] was “inactive”.
For the compound `CC(C)c1ccc(Cn2ccc3c4c(N)nc(NCCO)nc4ccc32)cc1`, the inhibition result in the test filed under Homo sapiens [4] and in the test listed under Homo sapiens [3] was “inactive” each time. In addition, the IC50 in test [2] came out at 4900 nM.
Consider `CC(C)c1ccc(Cn2ccc3c4c(N)nc(N5CCNCC5)nc4ccc32)cc1`, for which the inhibition result in the test filed under Homo sapiens [4] and in the test listed under Homo sapiens [3] was “inactive” in each case. The inhibition in test [5] turned out to be 17%.
For the compound `CCc1ccc(Cn2ccc3c4c(N)nc(N)nc4ccc32)cc1`, the IC50 in test [2] stood at 4500 nM.
The compound `CCOc1ccc(Cn2ccc3c4c(N)nc(N)nc4ccc32)cc1` had an IC50 in test [2] of 2630 nM.
In test [2], `C=Cc1ccc(Cn2ccc3c4c(N)nc(N)nc4ccc32)cc1` showed an IC50 of 9600 nM.
`CC(C)c1ccc(Cn2ccc3c4c(N(C)C)nc(N(C)C)nc4ccc32)cc1` registered an Inhibition in the test listed under Homo sapiens [6] of 40%. Further, the IC50 in test [2] turned out to be 1250 nM. Besides, the inhibition result in the test listed under Homo sapiens [3] is “inactive”.
With `CC(C)c1ccc(Cn2ccc3c4c(N)nc(N(C)C)nc4ccc32)cc1`, the figures for the 50% inhibitory concentration (IC50) (in the test filed under Homo sapiens [1]; in test [2]) were 2000 nM and 100 nM, respectively. In addition, in the test listed under Homo sapiens [3], the inhibition entry is “inactive”.
Regarding `CC(C)c1ccc(Cn2ccc3c4c(N)nc(NC5CC5)nc4ccc32)cc1`, the values for the IC50 (in the test listed under Homo sapiens [7]; in the test listed under Homo sapiens [1]; in test [2]) were 3000 nM, 300 nM and 56 nM, respectively.
On to `CNc1nc(N)c2c(ccc3c2ccn3Cc2ccc(C(C)C)cc2)n1`, for which the IC50 in the test filed under Homo sapiens [1] was determined as 600 nM; in test [2], 870 nM. For the same compound, the inhibition entry in the test filed under Homo sapiens [3] is “inactive”.
Take `CC(C)c1ccc(Cn2ccc3c4c(N)nc(N5CCc6ccccc6C5)nc4ccc32)cc1`: the inhibition result (in test [5]; in the test filed under Homo sapiens [3]) was “inactive” throughout.
Compound `CC(C)(C)c1ccc(Cn2ccc3c4c(N)nc(N)nc4ccc32)cc1` came in with an IC50 in test [2] of 1230 nM.
The compound `CNc1nc(N(C)C)nc2ccc3c(ccn3Cc3ccc(C(C)C)cc3)c12` had an IC50 in test [2] of 3200 nM. Further, in the test filed under Homo sapiens [3], the inhibition entry is “inactive”.
`CSc1ccc(Cn2ccc3c4c(N)nc(N)nc4ccc32)cc1`: in test [2], the IC50 was 6880 nM.
In test [2], `Cc1ccc2cc(Cn3ccc4c5c(N)nc(N)nc5ccc43)ccc2c1` returned an IC50 of 1750 nM.
Consider `CC(C)c1ccc(Cn2ccc3c4c(N)nc(N(C)C5CC5)nc4ccc32)cc1`, for which the values for the IC50 (in the test filed under Homo sapiens [7]; in the test listed under Homo sapiens [1]; in test [2]) were 700 nM, 150 nM and 52 nM, respectively.
On to `CC(C)c1ccc(Cn2ccc3c4c(N)nc(N)nc4ccc32)cc1`, for which the inhibition result in the test filed under Homo sapiens [8] is “inactive”. Also, the values for the IC50 (in the test filed under Homo sapiens [1]; in test [2]) were 3000 nM and 300 nM, respectively.
